The results in this text go back to PubChem BioAssay (NCI).

Values joined by “and” are separate entries in the source; they are usually repeats but may differ in a detail not shown here. Equal values may be shown once.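 1) Cells in 96-well plates. 2) Compound, 48 h, 5 concentrations. 3) Linear interpolation between surrounding doses. 4) Unreached endpoint = highest concentration. GI50 = concentration required for 50% inhibition of growth. The concentration for full growth arrest is given as TGI.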 A value given as a limit tells only on which side of the number the result lay.

Test systems include CCRF-CEM leukemia; COLO 205 colon; HOP-92 NSCLC; OVCAR-8 ovarian; SK-MEL-28 melanoma; SN12C renal; SW-620 colon; UACC-62 melanoma; BT-549 breast.
Common to all, as to test: DTP human tumour cell line panel, 48 h

`NNC(=O)N/N=C1\CN(c2ccc(Cl)cc2Cl)C(=O)C(=O)C1c1nc2ccccc2o1` (stereo unspecified): the TGI in the assay on CCRF-CEM leukemia, in the assay with COLO 205 colon, in the assay with HOP-92 NSCLC, in the assay on OVCAR-8 ovarian, in the assay on SK-MEL-28 melanoma and with SN12C renal was above 100 µM throughout. Further, the concentration for total growth inhibition (TGI) in the assay with SW-620 colon and in the assay on UACC-62 melanoma was above 100 µM throughout.

Take `CCOc1ccccc1NC(=O)C1=C(C)NC(C)=C(C(=O)Nc2ccccc2OCC)C1c1ccc([N+](=O)[O-])cc1`: the TGI in the assay on COLO 205 colon, in the assay with HOP-92 NSCLC, with SK-MEL-28 melanoma, with SN12C renal, with SW-620 colon and in the assay on UACC-62 melanoma was above 100 µM each time.

Consider `Nc1ncc(C2[C@H](CNC(=O)c3cc(Br)c[nH]3)C(CNC(=O)c3cc(Br)c[nH]3)[C@@H]2c2cnc(N)[nH]2)[nH]1` (stereo partly specified), for which the GI50 was 6.71 µM in the assay on BT-549 breast; above 50 µM in the assay on CCRF-CEM leukemia; 43.7 µM in the assay with HOP-92 NSCLC; above 50 µM with OVCAR-8 ovarian; 21.4 µM with SN12C renal; above 50 µM with SW-620 colon. Moreover, in the assay on UACC-62 melanoma, the GI50 is above 50 µM. For the same molecule, the TGI in the assay on BT-549 breast, with CCRF-CEM leukemia, in the assay on HOP-92 NSCLC, in the assay on OVCAR-8 ovarian, with SN12C renal and in the assay with SW-620 colon was above 50 µM each time. Moreover, the TGI in the assay with UACC-62 melanoma is above 50 µM.

Take `OCC#Cc1ccccc1C#Cc1ccc(C#Cc2ccccc2)cc1`: the GI50 in the assay on BT-549 breast is 35.6 µM; in the assay on COLO 205 colon, 24.9 µM; in the assay on OVCAR-8 ovarian it was 23.1 µM; in the assay with SK-MEL-28 melanoma it was 38.3 µM; with SN12C renal, 19 µM; with SW-620 colon it was 17.2 µM. For the same molecule, in the assay with UACC-62 melanoma, the GI50 is 19.9 µM. Further, the TGI in the assay on BT-549 breast was above 100 µM; with COLO 205 colon it was 70.7 µM; in the assay on OVCAR-8 ovarian, 57 µM; with SK-MEL-28 melanoma, above 100 µM; in the assay with SN12C renal, 35.6 µM; with SW-620 colon it was 44.4 µM. In the assay with UACC-62 melanoma, the TGI came to 36.1 µM.

With `Nc1nc(=S)[nH]c(C(=O)Nc2nccs2)c1-c1ccccc1`, the total growth inhibition concentration (TGI) in the assay with CCRF-CEM leukemia, in the assay with COLO 205 colon, in the assay on HOP-92 NSCLC, in the assay with OVCAR-8 ovarian, in the assay with SK-MEL-28 melanoma and in the assay with SN12C renal was above 100 µM each time. Besides, the TGI in the assay with SW-620 colon and in the assay on UACC-62 melanoma was above 100 µM each time.

As to `CC(=O)OCC1OC(n2c(=S)n(-c3ccccc3)c(=O)c3cc(Br)cc(Br)c32)C(OC(C)=O)C(OC(C)=O)C1OC(C)=O` (stereo unspecified), the TGI in the assay on CCRF-CEM leukemia is above 100 µM; with COLO 205 colon, above 100 µM; in the assay with HOP-92 NSCLC, 63.3 µM and > 100 µM; in the assay on OVCAR-8 ovarian, above 100 µM; in the assay on SK-MEL-28 melanoma it was above 100 µM; in the assay with SN12C renal, above 100 µM. In addition, the TGI with SW-620 colon and in the assay with UACC-62 melanoma was above 100 µM each time. The GI50 in the assay with HOP-92 NSCLC was 15.3 µM and 46.9 µM.

Turning to `CCCCCCCCCCCCCCC(C)CCC(=O)O` (stereo unspecified), the total growth inhibition concentration (TGI) in the assay on COLO 205 colon, in the assay with HOP-92 NSCLC, in the assay with OVCAR-8 ovarian, in the assay on SK-MEL-28 melanoma, with SN12C renal and with SW-620 colon was above 100 µM each time. This molecule also showed a TGI in the assay on UACC-62 melanoma above 100 µM.

Regarding `COCC1N=C(c2cc(OC)c(OC)c(OC)c2-c2cc3c(cc2[C@H](C)O)OCO3)O[C@H]1c1ccccc1` (stereo partly specified), the concentration for total growth inhibition (TGI) is above 10 µM with CCRF-CEM leukemia; 85.2 µM in the assay on COLO 205 colon; 86.4 µM in the assay with HOP-92 NSCLC; above 100 µM in the assay with OVCAR-8 ovarian; above 100 µM in the assay with SK-MEL-28 melanoma; above 100 µM in the assay on SN12C renal. The total growth inhibition concentration (TGI) with SW-620 colon and in the assay on UACC-62 melanoma was above 100 µM each time.

Turning to `O=C(CC1=Nc2nnc(-c3nnc4n3C(=O)C(CC(=O)C3CC3)=N4)n2C1=O)C1CC1`, the concentration for total growth inhibition (TGI) in the assay on CCRF-CEM leukemia, with COLO 205 colon, in the assay on HOP-92 NSCLC, in the assay on SK-MEL-28 melanoma, in the assay with SN12C renal and in the assay with SW-620 colon was above 100 µM in each case. Moreover, in the assay on UACC-62 melanoma, the total growth inhibition concentration (TGI) was above 100 µM.

On to `c1ccc2c3c([nH]c2c1)C1C2CCCCN2C(c2ccncc2)N1CC3` (stereo unspecified), for which the TGI in the assay on CCRF-CEM leukemia, in the assay with COLO 205 colon, in the assay with OVCAR-8 ovarian, in the assay with SK-MEL-28 melanoma, in the assay with SN12C renal and in the assay with SW-620 colon was above 100 µM throughout. In the assay with UACC-62 melanoma, this molecule returned a TGI above 100 µM.

Regarding `N#CC(NC(=O)CCl)=C(Cl)Cl`, the GI50 in the assay with BT-549 breast is 1.93 µM; in the assay with CCRF-CEM leukemia, 0.377 µM; in the assay with COLO 205 colon, 1.44 µM; with OVCAR-8 ovarian, 2.21 µM; in the assay on SK-MEL-28 melanoma, 1.56 µM; with SN12C renal it was 1.73 µM. In addition, the GI50 in the assay on SW-620 colon is 1.44 µM; in the assay on UACC-62 melanoma it was 1.34 µM. The TGI stood at 4.1 µM in the assay on BT-549 breast; 1.79 µM in the assay with CCRF-CEM leukemia; 2.99 µM in the assay on COLO 205 colon; 6.08 µM in the assay on OVCAR-8 ovarian; 3.03 µM in the assay with SK-MEL-28 melanoma; 3.26 µM in the assay with SN12C renal. The TGI with SW-620 colon was determined as 3.49 µM; in the assay on UACC-62 melanoma it was 2.69 µM.

In the case of `OCC(O)C(O)C(O)C(O)c1nn[nH]n1` (stereo unspecified), the TGI in the assay on CCRF-CEM leukemia, in the assay on COLO 205 colon, in the assay with HOP-92 NSCLC, with OVCAR-8 ovarian, with SN12C renal and in the assay on SW-620 colon was above 100 µM throughout. The molecule further had a TGI with UACC-62 melanoma above 100 µM.

Turning to `CC(=O)[O-].[Mn+3].[O-]c1ccc(Cl)cc1C=NCCN=Cc1cc(Cl)ccc1[O-]`, the GI50 with CCRF-CEM leukemia was 22.2 µM; in the assay with OVCAR-8 ovarian it was above 100 µM; in the assay on SK-MEL-28 melanoma, above 100 µM; in the assay with SN12C renal it was above 100 µM; with UACC-62 melanoma, above 100 µM. Moreover, the TGI in the assay with CCRF-CEM leukemia, in the assay with OVCAR-8 ovarian, in the assay on SK-MEL-28 melanoma, with SN12C renal and with UACC-62 melanoma was above 100 µM in each case.

As a reminder, the TGI is the concentration giving total growth inhibition. Read a low TGI as more potent growth arrest. One may read the GI50 as the concentration at which growth is held to half of that of the control.
